The values that follow come from patent US5034317A, “Enzyme controlled release system and organic conjugate reactant” (priority 1987, dated 1991).

Type in all cases: biochemical
Data set [1] concerns the target Aspergillus oryzae β-galactosidase (Aspergillus oryzae, UniProt Q2UCU3). The experiment in a line: Enzymatic hydrolysis of conjugate reactants by Aspergillus oryzae β-galactosidase (release of displaceable ligand). The source says: (§1) A major advantage provided by the organic conjugate compositions comprising the present invention is the selective ability to discriminate not only between different classes of enzymes, but also to distinguish the same enzyme obtained from different sources. […] Each of the individual, separately derived, beta-galactosidases were commercially obtained and empirically evaluated using the test protocol described previously in Example 6.

Data set [2] addresses T1, beef liver β-galactosidase (Bos taurus, UniProt Q58D55).
T1 sequence (Q58D55 28-653): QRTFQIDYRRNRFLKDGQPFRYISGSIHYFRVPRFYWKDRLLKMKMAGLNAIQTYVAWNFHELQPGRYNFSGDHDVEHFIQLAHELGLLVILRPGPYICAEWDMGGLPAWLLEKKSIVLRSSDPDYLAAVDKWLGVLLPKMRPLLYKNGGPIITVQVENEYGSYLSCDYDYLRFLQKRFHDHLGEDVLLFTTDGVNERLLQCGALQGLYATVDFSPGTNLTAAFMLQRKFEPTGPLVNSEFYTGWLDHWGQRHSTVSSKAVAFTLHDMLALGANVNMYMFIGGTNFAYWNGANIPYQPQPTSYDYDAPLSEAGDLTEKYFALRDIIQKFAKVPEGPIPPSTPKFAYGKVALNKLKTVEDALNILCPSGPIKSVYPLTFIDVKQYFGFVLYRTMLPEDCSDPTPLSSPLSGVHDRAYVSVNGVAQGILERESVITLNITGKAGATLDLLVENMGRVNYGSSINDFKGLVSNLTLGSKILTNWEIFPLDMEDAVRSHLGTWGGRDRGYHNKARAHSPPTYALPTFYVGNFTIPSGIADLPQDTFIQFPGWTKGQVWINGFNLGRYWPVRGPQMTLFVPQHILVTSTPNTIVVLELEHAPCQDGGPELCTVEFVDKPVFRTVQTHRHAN
Put plainly: Enzymatic hydrolysis of conjugate reactants by beef liver β-galactosidase. To be noted: beef liver β-galactosidase 0.66 units; for Measured Rate of Reaction: 25° C., 10^-3 M.
Text: as §1

Data set [3] concerns the target Aspergillus oryzae Beta galactosidase (Aspergillus oryzae, UniProt Q2UCU3). The experiment in a line: Spectrofluorimetric detection of 1.0×10^-12 M enzyme with conjugate substrate. Here is the method:
Experimental conditions: Ten microliters of 1.0×10^-10 M Aspergillus oryzae Beta galactosidase (Cal Biochem) in 100 mM citrate phosphate, pH 5, with 0.05% w/v gelatin (Buffer A) was added to one milliliter of 1.6 mM compound 15 in Buffer A, yielding a final enzyme concentration of 1.0×10^-12 M. One half milliliter of this reaction mixture was monitored in a spectrofluorimeter in a two millimeter cuvette with instrument settings of 540 nm excitation, 580 emission and 5 nm slit widths. The signal was measured on a chart recorder at a speed of one centimeter per minute and at a sensitivity setting that gave fifteen percent deflection with 1.7×10^-7 M Sulforhodamine 101 in ethanol.

The target of data set [4] is E. coli β-galactosidase (Escherichia coli, UniProt P00722). The experiment in a line: Enzymatic hydrolysis of conjugate reactants by E. coli β-galactosidase. Conditions: 25° C., 10^-3 M, E. coli β-galactosidase 7.5 units, pH 7.0 (Table 6).
Sequence of E. coli β-galactosidase (P00722 whole entry): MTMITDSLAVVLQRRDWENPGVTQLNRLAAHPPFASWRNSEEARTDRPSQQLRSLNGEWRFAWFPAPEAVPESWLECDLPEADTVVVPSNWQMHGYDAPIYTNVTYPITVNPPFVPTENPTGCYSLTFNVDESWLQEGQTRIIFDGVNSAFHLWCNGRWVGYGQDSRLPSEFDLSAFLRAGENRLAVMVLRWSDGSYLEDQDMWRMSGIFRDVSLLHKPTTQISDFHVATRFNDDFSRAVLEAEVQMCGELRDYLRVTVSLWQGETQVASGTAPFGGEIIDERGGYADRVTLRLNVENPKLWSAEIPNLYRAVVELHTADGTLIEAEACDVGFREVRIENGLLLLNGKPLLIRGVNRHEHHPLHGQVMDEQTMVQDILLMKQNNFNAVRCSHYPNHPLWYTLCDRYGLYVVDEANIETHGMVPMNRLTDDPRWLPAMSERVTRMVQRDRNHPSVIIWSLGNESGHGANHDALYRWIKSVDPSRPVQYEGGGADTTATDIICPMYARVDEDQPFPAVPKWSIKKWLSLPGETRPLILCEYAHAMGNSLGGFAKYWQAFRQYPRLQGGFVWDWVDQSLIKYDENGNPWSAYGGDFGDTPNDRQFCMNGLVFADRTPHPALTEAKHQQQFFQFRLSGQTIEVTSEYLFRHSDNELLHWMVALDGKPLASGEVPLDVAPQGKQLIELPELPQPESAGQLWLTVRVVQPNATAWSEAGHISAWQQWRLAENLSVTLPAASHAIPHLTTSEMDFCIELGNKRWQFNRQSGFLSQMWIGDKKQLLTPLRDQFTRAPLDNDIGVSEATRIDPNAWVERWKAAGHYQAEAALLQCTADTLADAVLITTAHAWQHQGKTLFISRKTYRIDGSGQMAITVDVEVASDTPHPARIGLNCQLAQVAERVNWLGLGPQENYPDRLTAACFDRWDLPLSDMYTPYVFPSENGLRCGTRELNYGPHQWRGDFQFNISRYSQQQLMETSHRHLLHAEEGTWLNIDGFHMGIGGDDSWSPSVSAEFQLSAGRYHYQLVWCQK
Text: as §1

The mark [5] stands for this setting: reactant 1.7 × 10^-5 M, temperature 36.5, 0.85 units Aspergillus oryzae β-galactosidase, pH 7.0 (Table 5).

Sequence of Aspergillus oryzae β-galactosidase (Q2UCU3 19-1005): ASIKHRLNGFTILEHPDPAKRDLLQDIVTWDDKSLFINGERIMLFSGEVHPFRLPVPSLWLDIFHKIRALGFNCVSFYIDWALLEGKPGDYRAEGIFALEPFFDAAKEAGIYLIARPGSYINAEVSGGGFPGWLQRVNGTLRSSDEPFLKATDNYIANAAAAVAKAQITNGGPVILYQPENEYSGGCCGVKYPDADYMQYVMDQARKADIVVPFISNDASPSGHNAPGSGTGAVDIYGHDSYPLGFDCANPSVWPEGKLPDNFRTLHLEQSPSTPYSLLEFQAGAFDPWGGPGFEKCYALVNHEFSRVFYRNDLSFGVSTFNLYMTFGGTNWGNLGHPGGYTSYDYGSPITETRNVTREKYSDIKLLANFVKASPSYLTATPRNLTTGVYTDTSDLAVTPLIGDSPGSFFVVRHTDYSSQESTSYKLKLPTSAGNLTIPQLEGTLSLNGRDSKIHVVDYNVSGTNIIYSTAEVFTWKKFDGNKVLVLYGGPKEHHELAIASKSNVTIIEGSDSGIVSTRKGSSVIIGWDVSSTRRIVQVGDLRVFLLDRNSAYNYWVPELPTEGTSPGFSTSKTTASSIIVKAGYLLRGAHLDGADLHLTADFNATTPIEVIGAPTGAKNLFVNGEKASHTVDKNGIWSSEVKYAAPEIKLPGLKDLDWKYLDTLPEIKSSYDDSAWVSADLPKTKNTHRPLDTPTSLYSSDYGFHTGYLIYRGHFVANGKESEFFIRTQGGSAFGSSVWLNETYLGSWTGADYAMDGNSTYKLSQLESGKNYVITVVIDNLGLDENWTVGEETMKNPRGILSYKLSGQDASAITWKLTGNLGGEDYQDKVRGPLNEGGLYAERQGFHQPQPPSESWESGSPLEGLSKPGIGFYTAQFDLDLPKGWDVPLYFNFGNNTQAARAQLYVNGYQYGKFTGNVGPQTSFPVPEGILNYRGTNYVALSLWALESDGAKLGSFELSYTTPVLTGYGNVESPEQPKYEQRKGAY
Sequence of Aspergillus oryzae Beta galactosidase (Q2UCU3 19-1005): as above

As to `CCN(C(=O)Oc1ccc2nc3ccc(=O)cc-3oc2c1)c1cc(S(=O)(=O)N(C)C)ccc1O[C@@H]1O[C@H](CO)[C@H](O)[C@H](O)[C@H]1O` [Compound 8, 2-[N-ethyl-N-carbo (resorufinyl)]-4-dimeehylamino sulfonylphenyl-β-D-galactopyranoside], the “Measured Rate of Reaction” value was found to be 0.0015 µmol/min in data set [1] (36.5° C., 1.7 × 10^-5 M, Asp. ory. β-galactosidase 0.85 units, pH 7.0 (Table 6)) and 0.0015 µmol/min in data set [1] (setting [5]). Also, in data set [2] (36.5° C., 1.7 × 10^-5 M, pH 7.0, cell reads 'incomplete hydro-lysis after 4 days' (Table 6)), the “Measured Rate of Reaction (in words: hydrolysis after 4 days)” value is “incomplete”.
Take `CCN(C(=O)Oc1ccc2nc3ccc(=O)cc-3oc2c1)c1cc(S(=O)(=O)N2CCN(C(=O)CCC(=O)O)CC2)ccc1O[C@@H]1O[C@H](CO)[C@H](O)[C@H](O)[C@H]1O` [Compound 15]: in data set [3] (1.6 mM substrate in Buffer A pH 5, without enzyme, fluorescence over time), the “signal generated by the substrate solution alone (no enzyme)” value is on record as “No increase in the signal”. For the same compound, the “increase in deflection (fluorescence signal) of the enzyme reaction mixture” value in data set [3] (1.6 mM substrate, 1.0×10^-12 M enzyme, 100 mM citrate phosphate pH 5 with 0.05% gelatin, ten minute interval, 540 nm excitation, 580 emission) is “one and one half percent increase in deflection”.
For the compound `CCN(C(=O)Oc1ccc([N+](=O)[O-])cc1)c1cc(S(=O)(=O)N(C)C)ccc1O[C@@H]1O[C@H](CO)[C@H](O)[C@H](O)[C@H]1O` [Compound 6, 2-[N-ethyl N-carbo (p-nitrophenoxy)]-4-dimethylamino sulfonyl phenyl-β-D-galactopyranoside], the “Measured Rate of Reaction” value in data set [1] (25° C., 10^-3 M, Asp. ory. β-galactosidase 0.5 units, pH 5.5 (Table 6)) was determined as 0.028 µmol/min; in data set [1] (25° C., 10^-3 M, Asp. ory. β-galactosidase 0.85 units, pH 7.0 (Table 6)) it was 0.0091 µmol/min; in data set [1] (setting [5]) it was 0.0065 µmol/min; in data set [1] (reactant 10^-3 M, temperature 25, 0.5 units Aspergillus oryzae β-galactosidase, pH 5.5 (Table 5)) it was 0.028 µmol/min; in data set [1] (reactant 10^-3 M, temperature 25, 0.85 units Aspergillus oryzae β-galactosidase, pH 7.0 (Table 5)), 0.009 µmol/min; in data set [1] (reactant 10^-3 M, temperature 25, 1.0 units Aspergillus oryzae β-galactosidase, pH 5.5 (Table 5)), 0.066 µmol/min. Moreover, the “Measured Rate of Reaction” value came out at 0.039 µmol/min in data set [1] (reactant 10^-3 M, temperature 25, 4.2 units Aspergillus oryzae β-galactosidase, pH 7.0 (Table 5)); 0.00006 µmol/min in data set [4]; 0.0094 µmol/min in data set [2] (pH 5.5 (Table 6)); 0.00075 µmol/min in data set [2] (pH 7.0 (Table 6)).
